This note sets out measurements from article PMC2972509 (Journal of medicinal chemistry, 2010).

Data set [1] addresses T1, cloned D4 dopamine receptor (Rattus norvegicus, UniProt P30729).
T1 sequence (P30729 1-387): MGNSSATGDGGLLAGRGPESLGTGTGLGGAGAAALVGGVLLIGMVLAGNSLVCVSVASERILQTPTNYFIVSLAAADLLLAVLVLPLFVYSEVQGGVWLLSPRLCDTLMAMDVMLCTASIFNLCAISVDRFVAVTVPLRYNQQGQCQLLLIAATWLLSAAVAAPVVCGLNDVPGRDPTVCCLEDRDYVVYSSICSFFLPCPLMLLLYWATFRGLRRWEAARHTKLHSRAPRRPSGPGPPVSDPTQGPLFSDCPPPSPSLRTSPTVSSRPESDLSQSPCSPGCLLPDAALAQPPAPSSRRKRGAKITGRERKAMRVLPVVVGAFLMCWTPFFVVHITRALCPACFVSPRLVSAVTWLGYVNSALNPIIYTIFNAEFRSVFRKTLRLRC
The data set is described as follows: D4 receptor functional assay: decrease in forskolin-stimulated cAMP accumulation. The class given is cell-based. The settings on record: Gi/o-mediated.

Data set [2] can be described thus: Preliminary disposition studies in mice. It counts as in vivo. The settings on record: for Tmax: male, CD1, mouse, plasma, ip; for Maximum brain concentration (mean ± SD) / Maximum plasma concentration (mean ± SD): parent compound, 7 after 30 min, 13 after 15 min.
A further data set deals with T2, dopamine D4 receptor (Rattus norvegicus, UniProt P30729).
T2 sequence (P30729 1-387): T1 sequence (P30729 1-387)
Kind of data set: Radioligand competition binding at cloned dopamine D4 receptor. The settings on record: for D4 Ki, nM ± SEM: [3H]MSP, cloned rat D4 receptor in HEK293 membranes; for Selectivity for D4 over off-target receptors: over D2, D3, 5-HT1A, 5-HT2A, 5-HT2C and sigma1 receptors. (In general: In a radioligand displacement assay an active substance lowers the binding of a labelled ligand.)

“And” between values parts separate entries of the source, which are not always exact repeats. Identical values can stand only once. “Also recorded” adds a separate entry of the source.

One may read the Tmax as the time from dosing to the highest level. For the molecule `COc1cccc(C(=O)NCCN2CCN(c3ncccc3C#N)CC2)c1` [Compound 7, N-[2-[4-(3-Cyanopyridin-2-yl)piperazin-1-yl]ethyl]-3-methoxybenzamide], the “Functional property at D4 receptor” value in data set [1] was “agonist properties; also recorded: agonists”. Moreover, in data set [2] (10 mg/kg), the Tmax is 30 min. Besides, in data set [2] (mice, 10 mg/kg i.p.), the “Time up to which plasma concentrations were consistently detected” value is listed as “up to 60 minutes”, the “Time up to which quantifiable brain levels were consistently evident” value is listed as “up to 30 min” and the “Maximum brain concentration (mean ± SD)” value is given as 0.14 ± 0.02 µg/g. In addition, the “Maximum plasma concentration (mean ± SD)” value in data set [2] (mice, 10 mg/kg i.p., 10 mg/kg) is 0.37 ± 0.02 µg/mL and 0.37 ± 0.21 µg/mL. In addition, on dopamine D4 receptor, the “D4 Ki, nM ± SEM” value was “nanomolar affinity” and the “Selectivity for D4 over off-target receptors” value is greater than 100 fold.

With `N#Cc1cccnc1N1CCN(CCNC(=O)c2ccc(F)cc2)CC1` [Compound 13, N-[2-[4-(3-Cyanopyridin-2-yl)piperazin-1-yl]ethyl]-4-fluorobenzamide], the “Functional property at D4 receptor” value in data set [1] is on record as “agonist properties; also recorded: agonists”. Besides, the Tmax in data set [2] (10 mg/kg) was 15 min. Besides, in data set [2] (mice, 10 mg/kg i.p.), the “Time of mean brain Cmax” value amounted to 15 min, the “Time up to which quantifiable brain levels were consistently evident” value is “up to 60 min”, the “Maximum brain concentration (mean ± SD)” value was 0.47 ± 0.20 µg/g and the “Maximum plasma concentration (mean ± SD)” value was determined as 0.13 ± 0.10 µg/mL. Also, the “Plasma concentration after 30 minutes (below limit of quantitation)” value in data set [2] (mice, 10 mg/kg i.p., 0.2 ml plasma) is “less than 0.1 µg/mL”. Further, at dopamine D4 receptor, the “D4 Ki, nM ± SEM” value is recorded as “subnanomolar; also recorded: nanomolar affinity” and the “Selectivity for D4 over off-target receptors” value was greater than 100 fold.

Regarding `O=C(NCCN1CCN(c2noc3ccccc23)CC1)c1ccc(F)cc1` [Compound 11, N-[2-[4-(1,2-Benzisoxazol-3-yl)piperazin-1-yl]ethyl]-4-fluorobenzamide], on dopamine D4 receptor, the “Fold higher D4 affinity than the 3-methoxy analog 5” value is on record as “approximately 6 fold” and the “D4 Ki, nM ± SEM” value is “subnanomolar”.
